Experimental data published in patent publication US12691109B2, “Bifunctional aggregation-induced emission luminogen for monitoring and killing of multidrug-resistant bacteria” (The Hong Kong University of Science and Technology, priority 2018, dated 2026).
“Also recorded” adds a separate entry of the source.

Tests used:
[1] = test system: human umbilical vein endothelial cells (HUVECs); assay: Cytotoxicity, CCK-8 kit; format: cell-based
Method: (§1) FIGS. 18A-B are graphs depicting cell viability of human amniotic fluid stem cells (HAFs) and human umbilical vein endothelial cells (HUVECs) after incubation with TriPE-NT at different concentrations of 0, 2, 5, 10 and 20 μM under dark conditions and upon white-light illumination (4 mW cm^−2) for 2 and 30 min.
(§2) Cytotoxicity of the TriPE-NT was tested because a good antibacterial drug should have the ability to kill only bacteria and have no toxicity to human or animal cells. The biocompatibility of TriPE-NT was evaluated by CCK-8 kit.

[2] = test system: human skin fibroblast cells (HAFs); assay: Cytotoxicity, CCK-8 kit; format: cell-based
Method: as §1, §2

[3] = test system: MDR S. epidermidis-infected wounds; assay: Bacteria-infected full-thickness skin wound model on rats; format: in vivo, Wistar rats
Text: (§3) FIGS. 26A-D show In vivo evaluation of TriPE-NT in treatment of bacteria-infected wounds on rats. FIG. 26A illustrates the process of establishing bacteria-infected full-thickness skin wound models on rats. […] FIG. 26C is a graph plotting the proportion of the E. coli and MDR E. coli infected wound area on day 3 and day 7 after the injury. FIG. 26D is a graph plotting the proportion of the S. epidermidis and MDR S. epidermidis infected wound area on day 3 and day 7 after the injury (each experiment was repeated at least 5 times).
(§4) To further evaluate the anti-bacterial activity of TriPE-NT in vivo, the performance of TriPE-NT on bacteria-infected wounds of rats was tested. E. coli-, MDR E. coli-, S. epidermidis or MDR S. epidermidis-infected, full-thickness skin wounds were established on the dorsal skin of the Wistar rats (FIG. 26A). The macroscopic appearance of the healing processes of the wounds was captured at different time points (FIG. 26B).
(§5) Hematoxylin and eosin (HE) staining was carried out for evaluating the wound healing of the sectioned tissues of the E. coli-, MDR E. coli-, S. epidermidis- and MDR S. epidermidis-infected wounds on the Wistar rats on day 3 and day 7 post-injury (FIG. 28). […] Fibroblasts can secret collagens which accelerate wound reconstruction, that means the TriPE-NT plus light irradiation can promote the wound healing.

[4] = test system: MDR E. coli-infected wounds; assay: as above; format: in vivo, Wistar rats
Text: as §3, §4, §5

[5] = test system: S. epidermidis-infected wounds; assay: as above; format: in vivo, Wistar rats
Text: as §3, §4, §5

E. coli-infected wounds = assay: as above; format: in vivo, Wistar rats
Text: as §3, §4, §5

S. aureus = assay: Light-enhanced bacteria killing, plate counting method; format: cell-based
Method: (§6) FIGS. 15C-F are graphs depicting bacteria survival rates for bacteria that were incubated with TriPE-NT (10 μM) for 10 min, the bacteria suspensions (50 μL) were plated on agar plates and treated by white-light illumination (4 mW cm^−2) for 0, 2 and 30 min respectively. FIG. 15C is a graph plotting survival rate versus time of E. coli and MDR E. coli. FIG. 15D is a graph plotting survival rate versus time of K. pneumoniae and MDR K. pneumoniae. FIG. 15E is a graph plotting survival rate versus time of S. epidermidis and MDR S. epidermidis. FIG. 15F is a graph plotting survival rate versus time of S. aureus and MDR S. aureus.
(§7) The bacteria killing effect of TriPE-NT was evaluated on both wild and clinically isolated MDR bacteria by a traditional plate counting method. First, E. coli and S. epidermidis, as the representative of Gram-negative (G−) and Gram-positive (G+) bacteria, were used to determine the effective bactericidal concentration and illumination time. The bacteria were incubated with TriPE-NT (0, 5, 10 μM) for 0 and 10 min, the bacteria suspensions (50 μL) were plated on agar plates and treated by white-light illumination (4 mW cm^−2) for 2, 10 and 30 min respectively (FIGS. 16A-B). […] Thus, 10 μM TriPE-NT and light irradiation for 2 min or 30 min were set as experimental conditions in the following experiments.

K. pneumoniae = assay: as above; format: cell-based
Method: as §6, §7

MDR E. coli = assay: as above; format: cell-based
Method: as §6, §7

MDR S. aureus = assay: as above; format: cell-based
Method: as §6, §7

MDR S. epidermidis = assay: as above; format: cell-based; details: in darkness, 10 μM TriPE-NT
Method: as §6, §7

MDR K. pneumoniae = assay: as above; format: cell-based
Method: as §6, §7

[6] = 2, 5, 10 and 20 RM, absence of white light irradiation
[7] = white light 4 mW cm^−2, 2 and 30 min
[8] = day 3 post-injury, TriPE-NT plus light vs control
[9] = day 3 post-injury, TriPE-NT plus light vs untreated
[10] = day 7 post-injury, TriPE-NT plus light (4 mW cm^−2, 30 min) vs control
[11] = day 7 post-injury, TriPE-NT plus light vs control
[12] = 10 μM, white light 4 mW cm^−2, 30 min

## COc1ccc(C(=Cc2ccc(-c3ccc4c5c(cccc35)C(=O)N(CCCCn3c[n+](Cc5ccc(F)cc5F)cn3)C4=O)cc2)c2ccc(OC)cc2)cc1 [TriPE-NT]
[1]; [6]
  cell viability of HUVECs: not significantly changed
[1]; [7]
  cytotoxicity to HUVECs with increase of irradiation time: no obvious cytotoxicity
[2]; [6]
  cell viability of HAFs: not significantly changed
[2]; [7]
  cytotoxicity to HAFs with increase of irradiation time: no obvious cytotoxicity
[3]; [8]
  wound size, MDR S. epidermidis-infected wounds: no apparent difference
[3]; [9]
  HE staining of wound tissue, invaded lymphocytes, MDR S. epidermidis-infected wounds: reduced the inflammatory reactions
[3]; [10]
  wound size, MDR S. epidermidis-infected wounds: significantly smaller sizes
[3]; [11]
  HE staining of wound tissue, MDR S. epidermidis-infected wounds: appearance of fibroblasts and newly formed squamous epithelial layers
[4]; [8]
  wound size, MDR E. coli-infected wounds: no apparent difference
[4]; [9]
  HE staining of wound tissue, invaded lymphocytes, MDR E. coli-infected wounds: reduced the inflammatory reactions
[4]; [10]
  wound size, MDR E. coli-infected wounds: significantly smaller
[5]; [8]
  wound size, S. epidermidis-infected wounds: no apparent difference
[5]; [9]
  HE staining of wound tissue, invaded lymphocytes, S. epidermidis-infected wounds: reduced the inflammatory reactions
[5]; [10]
  wound size, S. epidermidis-infected wounds: more apparent reduction of wound size
[5]; [11]
  HE staining of wound tissue, S. epidermidis-infected wounds: appearance of fibroblasts and newly formed squamous epithelial layers; also recorded: appearance of hair follicles
E. coli-infected wounds; [8]
  wound size, E. coli-infected wounds: no apparent difference
E. coli-infected wounds; [9]
  HE staining of wound tissue, invaded lymphocytes, E. coli-infected wounds: reduced the inflammatory reactions
E. coli-infected wounds; [10]
  wound size, E. coli-infected wounds: more apparent reduction of wound size
S. aureus; [12]
  S. aureus killed: > 98%
S. aureus; in darkness, 10 μM TriPE-NT
  survival rate of S. aureus: ~8.9±1.1%
K. pneumoniae; [12]
  K. pneumoniae killed: > 90%
K. pneumoniae; in darkness, 10 μM TriPE-NT
  survival rate of K. pneumoniae: ~59.9±6.5%
MDR E. coli; [12]
  MDR E. coli killed: more than 96%
MDR E. coli; in darkness, 10 μM TriPE-NT
  survival rate of MDR E. coli: ~14.1±1.4%
MDR S. aureus; [12]
  MDR S. aureus killed: > 97%
MDR S. aureus; in darkness, 10 μM TriPE-NT
  survival rate of MDR S. aureus: ~22.4±1.9%
MDR S. epidermidis
  killing of MDR S. epidermidis: killed nearly all
MDR K. pneumoniae; [12]
  MDR K. pneumoniae killed: > 61%
MDR K. pneumoniae; in darkness, 10 μM TriPE-NT
  survival rate of MDR K. pneumoniae: ~74.4±3.7%
